According to patent publication US20250034216A1, “STEREOSELECTIVE COVALENT LIGANDS FOR ONCOGENIC AND IMMUNOLOGICAL PROTEINS” (The Scripps Research Institute, priority 2021, published 2025):

Tests used:
Test in all cases: IA-DTB cysteine engagement
Type in all cases: binding
Details in all cases: 22Rv1 cells, 20 μM probe, 1 h, relative to DMSO
SYNE2_C2993 = target: T1, SYNE2_C2993 (Homo sapiens, UniProt Q8WXH0)
T1 construct: endogenous in cells; host or cells: 22Rv1
How it was run: (§1)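 Probe-exposed cells were lysed, IA-DTB-labeled, trypsinized and streptavidin-enriched. Multiplexed TMT quantitation gave engagement ratios versus DMSO, with non-tryptic peptides excluded and intensities normalized to median summed signal.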

SLC25A39_C334 = target: T2, SLC25A39_C334 (Homo sapiens, UniProt Q9BZJ4)
T2 construct: endogenous in cells; host or cells: 22Rv1
T2 sequence (Q9BZJ4 1-359): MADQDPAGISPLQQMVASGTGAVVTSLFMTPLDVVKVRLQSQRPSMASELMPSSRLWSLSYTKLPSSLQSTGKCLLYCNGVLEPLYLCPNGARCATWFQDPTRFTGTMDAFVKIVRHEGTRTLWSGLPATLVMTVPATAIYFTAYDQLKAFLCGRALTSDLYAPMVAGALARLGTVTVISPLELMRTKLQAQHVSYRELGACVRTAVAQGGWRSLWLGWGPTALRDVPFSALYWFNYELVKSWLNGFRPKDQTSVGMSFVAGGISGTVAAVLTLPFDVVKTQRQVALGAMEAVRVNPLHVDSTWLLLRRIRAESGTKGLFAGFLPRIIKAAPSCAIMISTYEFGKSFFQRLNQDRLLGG
How it was run: as §1

TM7SF2_C184 = target: T3, TM7SF2_C184 (Homo sapiens, UniProt O76062)
T3 construct: endogenous in cells; host or cells: 22Rv1
T3 sequence (O76062 1-418): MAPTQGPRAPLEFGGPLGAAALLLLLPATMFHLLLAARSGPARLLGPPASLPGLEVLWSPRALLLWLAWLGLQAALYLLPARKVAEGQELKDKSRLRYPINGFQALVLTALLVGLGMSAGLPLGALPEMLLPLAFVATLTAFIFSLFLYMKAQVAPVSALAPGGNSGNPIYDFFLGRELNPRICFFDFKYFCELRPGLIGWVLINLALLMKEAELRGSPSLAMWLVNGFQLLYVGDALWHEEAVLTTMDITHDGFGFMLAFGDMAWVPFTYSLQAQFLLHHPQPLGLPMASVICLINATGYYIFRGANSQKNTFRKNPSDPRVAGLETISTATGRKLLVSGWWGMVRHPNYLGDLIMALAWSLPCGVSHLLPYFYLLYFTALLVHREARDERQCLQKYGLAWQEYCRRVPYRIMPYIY
How it was run: as §1

| % engagement SYNE2_C2993 (SYNE2_C2993) [%] | % engagement SLC25A39_C334 (SLC25A39_C334) [%] | % engagement TM7SF2_C184 (TM7SF2_C184) [%] | SMILES |
| --- | --- | --- | --- |
| −20 | 23 | 86.5 | C=CC(=O)N1C[C@@H](c2ccc(Br)cc2)[C@H]1C(=O)Nc1cccc2cccnc12 [MY-1A, (2S,3R)-1-acryloyl-3-(4-bromophenyl)-N-(quinolin-8-yl)azetidine-2-carboxamide] |
| 76.5 | 45.5 | 64 | C=CC(=O)N1C[C@H](c2ccc(Br)cc2)[C@@H]1C(=O)Nc1cccc2cccnc12 [MY-1B, (2R,3S)-1-acryloyl-3-(4-bromophenyl)-N-(quinolin-8-yl)azetidine-2-carboxamide] |
| 54.5 | 72 | 100 | C=CC(=O)N1C[C@H](c2ccc(Br)cc2)[C@H]1C(=O)Nc1cccc2cccnc12 [MY-3B, (2S,3S)-1-acryloyl-3-(4-bromophenyl)-N-(quinolin-8-yl)azetidine-2-carboxamide] |
| 26.5 | 30.5 | 66.5 | C=CC(=O)N1C[C@H](c2ccc(Br)cc2)[C@H]1C(=O)Nc1cccc2cccnc12 [MY-3A, (2S,3S)-1-acryloyl-3-(4-bromophenyl)-N-(quinolin-8-yl)azetidine-2-carboxamide] |
